# Assay results as given in US6737383B1, “Herbicidal oxadiazolidines” (priority 1999, dated 2004).
# Key:
# crabgrass = assay: Test A crabgrass; type: in vivo, Digitaria spp.; conditions: 0 to 10 scale where 0 is no effect and 10 is complete control
# How it was run: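 Ratings came from visual comparison with untreated plants about eleven days after treatment, scored 0 for no effect through 10 for complete control. Both soil-drench preemergence and runoff-spray postemergence applications were made at the same time.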
# velvetleaf = assay: Test C postemergence velvetleaf; type: in vivo, Abutilon theophrasti; conditions: 0 to 100 scale, 0 no effect, 100 complete control
# Procedure: (§1) Compounds evaluated in this test were formulated in a non-phytotoxic solvent mixture which included a surfactant and applied to plants that were grown for various periods of time before treatment (postemergence application). A mixture of sandy loam soil and greenhouse potting mix in a 60:40 ratio was used for the postemergence test.
# (§2) Plantings of these crops and weed species were adjusted to produce plants of appropriate size for the postemergence test. All plant species were grown using normal greenhouse practices. Crop and weed species include arrowleaf sida (Sida rhombifolia), barnyardgrass (Echinochloa crus-galli), cocklebur (Xanthium strumarium), common ragweed (Ambrosia elatior), corn (Zea mays), cotton (Gossypium hirsutum), eastern black nightshade (Solanum ptycanthum), fall panicum (Panicum dichotomiflorum), field bindweed (Convolvulus arvensis), giant foxtail (Setaria faberii), hairy beggarticks (Bidens pilosa), ivyleaf morningglory (Ipomoea hederacea), johnsongrass (Sorghum halepense), ladysthumb smartweed (Polygonum persicaria), lambsquarters (Chenopodium album), large crabgrass (Digitaria sanguinalis), purple nutsedge (Cyperus rotundus), redroot pigweed (Amaranthus retroflexus), soybean (Glycine max), surinam grass (Brachiaria decumbens), velvetleaf (Abutilon theophrasti) and wild poinsettia (Euphorbia heterophylla).
# (§3) Treated plants and untreated controls were maintained in a greenhouse for approximately 14, to 21 days, after which all treated plants were compared to untreated controls and visually evaluated. Plant response ratings, summarized in Table C, were based upon a 0 to 100 scale where 0 was no effect and 100 was complete control. A dash response (−) means no test result.
# barnyardgrass = assay: Test C postemergence barnyardgrass; type: in vivo, Echinochloa crus-galli; conditions: 0 to 100 scale, 0 no effect, 100 complete control
# Procedure: as §1, §2, §3
# sourgrass = assay: Test D sourgrass; type: in vivo, Trichachne insularis; conditions: Preemergence, 0 to 100 scale
# Excerpt: Seeds, tubers, or plant parts of Alexandergrass (Brachiaria plantaginea), bermuda-grass (Cynodon dactylon), common pursiane (Portulaca oleracea), common ragweed (Ambrosia elatior), common groundsel (Senecio vulgaris), dallisgrass (Paspalum dilatatum), goosegrass (Eleusine indica), guineagrass (Panicum maximum), itchgrass (Rottboellia exaltata), Johnson grass (Sorghum halepense), large crabgrass (Digitaria sanguinalis), pitted morningglory (Ipomoea lacunosa), purple nutsedge (Cyperus rotundus), sandbur (Cenchrus echinatus), sourgrass (Trichachne insularis), Spanishneedles (Bidens bipinnata), surinam grass (Brachiaria decumbens) and tall mallow (Malva sylvestris) were planted into greenhouse pots of flats containing greenhouse planting medium. Plant species were grown in separate pots or individual compartments. Preemergence applications were made within one day of planting the seed or plant part.
# Test chemicals were formulated in a non-phytotoxic solvent mixture which included a surfactant and applied preemergence to the surface of the pot containing seeds in a sandy loam soil. Untreated control pots and treated pots were placed in the greenhouse for growth and visually evaluated for injury 14 to 21 days after herbicide application. Plant response ratings, summarized in Table C, are based on a 0 to 100 scale where 0 is no injury and 100 is complete control. A dash (−) response means no test result.
# corn = assay: Test C postemergence corn; type: in vivo, Zea mays; conditions: 0 to 100 scale, 0 no effect, 100 complete control
# Procedure: as §1, §2, §3
# soybean = assay: Test C postemergence soybean; type: in vivo, Glycine max; conditions: 0 to 100 scale, 0 no effect, 100 complete control
# Procedure: as §1, §2, §3
# cotton = assay: Test C postemergence cotton; type: in vivo, Gossypium hirsutum; conditions: 0 to 100 scale, 0 no effect, 100 complete control
# Procedure: as §1, §2, §3
# arrowleaf sida = assay: Test C postemergence arrowleaf sida; type: in vivo, Sida rhombifolia; conditions: 0 to 100 scale, 0 no effect, 100 complete control
# How it was run: (§4)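 Scores (0 = no effect, 100 = complete control) come from visual comparison with untreated controls after about 14–21 days. Spray formulation was a non-phytotoxic solvent mixture including surfactant; plants grew in a 60:40 sandy loam–potting mix blend.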
# eastern black nightshade = assay: Test C postemergence eastern black nightshade; type: in vivo, Solanum ptycanthum; conditions: 0 to 100 scale, 0 no effect, 100 complete control
# How it was run: as §4
# large crabgrass = assay: Test C postemergence large crabgrass; type: in vivo, Digitaria sanguinalis; conditions: 0 to 100 scale, 0 no effect, 100 complete control
# Procedure: as §1, §2, §3
# common ragweed = assay: Test C postemergence common ragweed; type: in vivo, Ambrosia elatior; conditions: 0 to 100 scale, 0 no effect, 100 complete control
# How it was run: as §4
# purple nutsedge = assay: Test C postemergence purple nutsedge; type: in vivo, Cyperus rotundus; conditions: 0 to 100 scale, 0 no effect, 100 complete control
# How it was run: as §4
# field bindweed = assay: Test C postemergence field bindweed; type: in vivo, Convolvulus arvensis; conditions: 0 to 100 scale, 0 no effect, 100 complete control
# Procedure: as §1, §2, §3
# wild poinsettia = assay: Test C postemergence wild poinsettia; type: in vivo, Euphorbia heterophylla; conditions: 0 to 100 scale, 0 no effect, 100 complete control
# Procedure: as §1, §2, §3
# Green foxtail = assay: Test D green foxtail; type: in vivo; conditions: Rate 500 g/ha; Preemergence; 0 to 100 scale
# How it was run: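 Scoring used a 0–100 visual injury scale, with 0 meaning no effect and 100 complete control, assessed 14–21 days after application alongside untreated pots. Preemergence treatments went onto sandy loam surfaces of separately potted seeds within a day of sowing.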
# [1] = Rate 64 g/ha, 0 no injury, 100 complete control
smiles,measurement,setting,value
CC(C)N(C(=O)n1oc(=O)n(C)c1=O)c1ccc(Cl)cc1 [Compound 137],"Plant response rating, Crabgrass","crabgrass; Postemergence, Rate 1000 g/ha",8
same,"Plant response rating, Crabgrass","crabgrass; Pre-emergence, Rate 2000 g/ha",10
CC(C)N(C(=O)n1oc(=O)n(N(C)c2ccccc2)c1=O)c1ccc(F)cc1 [Compound 177],"Plant response rating, Crabgrass","crabgrass; Postemergence, Rate 1000 g/ha",3
same,"Plant response rating, Crabgrass","crabgrass; Pre-emergence, Rate 2000 g/ha",9
CC(C)N(C(=O)n1oc(=O)n(C2CCCC(C(F)(F)F)C2)c1=O)c1ccc(F)cc1 (stereo not shown) [Compound 184],"Plant response rating, Crabgrass","crabgrass; Postemergence, Rate 1000 g/ha",1
same,"Plant response rating, Crabgrass","crabgrass; Pre-emergence, Rate 2000 g/ha",9
Cc1ccccc1-n1c(=O)on(C(=O)N(c2cc(OC(C)C)c(Cl)cc2Cl)C(C)C)c1=O [Compound 42],"Plant response rating, Crabgrass","crabgrass; Postemergence, Rate 1000 g/ha",0
same,"Plant response rating, Crabgrass","crabgrass; Pre-emergence, Rate 2000 g/ha",0
Cc1ccc(N(C(=O)n2oc(=O)n(C(C)C)c2=O)C(C)C)cc1 [Compound 132],"Plant response rating, Velvetleaf",velvetleaf; Rate 140 g/ha,0
same,"Plant response rating, Velvetleaf",velvetleaf; Rate 280 g/ha,0
same,"Plant response rating, Velvetleaf",velvetleaf; Rate 560 g/ha,0
same,"Plant response rating, Velvetleaf",velvetleaf; Rate 1120 g/ha,0
same,"Plant response rating, Barnyardgrass",barnyardgrass; Rate 140 g/ha,50
same,"Plant response rating, Barnyardgrass",barnyardgrass; Rate 280 g/ha,50
same,"Plant response rating, Barnyardgrass",barnyardgrass; Rate 560 g/ha,80
same,"Plant response rating, Barnyardgrass",barnyardgrass; Rate 1120 g/ha,95
same,"Plant response rating, Sourgrass",sourgrass; [1],100
same,"Plant response rating, Corn",corn; Rate 140 g/ha,0
same,"Plant response rating, Corn",corn; Rate 280 g/ha,0
same,"Plant response rating, Corn",corn; Rate 560 g/ha,0
same,"Plant response rating, Corn",corn; Rate 1120 g/ha,10
same,"Plant response rating, Soybean",soybean; Rate 140 g/ha,5
same,"Plant response rating, Soybean",soybean; Rate 280 g/ha,20
same,"Plant response rating, Soybean",soybean; Rate 560 g/ha,30
same,"Plant response rating, Soybean",soybean; Rate 1120 g/ha,40
same,Plant response rating Cotton,cotton; Rate 140 g/ha,5
same,Plant response rating Cotton,cotton; Rate 280 g/ha,10
same,Plant response rating Cotton,cotton; Rate 560 g/ha,20
same,Plant response rating Cotton,cotton; Rate 1120 g/ha,40
same,Plant response rating Arrowleaf sida,arrowleaf sida; Rate 140 g/ha,0
same,Plant response rating Arrowleaf sida,arrowleaf sida; Rate 280 g/ha,0
same,Plant response rating Arrowleaf sida,arrowleaf sida; Rate 560 g/ha,10
same,Plant response rating Arrowleaf sida,arrowleaf sida; Rate 1120 g/ha,80
same,Plant response rating E. blacknightsh,eastern black nightshade; Rate 140 g/ha,0
same,Plant response rating E. blacknightsh,eastern black nightshade; Rate 280 g/ha,0
same,Plant response rating E. blacknightsh,eastern black nightshade; Rate 560 g/ha,0
same,Plant response rating E. blacknightsh,eastern black nightshade; Rate 1120 g/ha,0
same,Plant response rating Large crabgrass,large crabgrass; Rate 140 g/ha,0
same,Plant response rating Large crabgrass,large crabgrass; Rate 280 g/ha,10
same,Plant response rating Large crabgrass,large crabgrass; Rate 560 g/ha,40
same,Plant response rating Large crabgrass,large crabgrass; Rate 1120 g/ha,80
same,Plant response rating Common ragweed,common ragweed; Rate 140 g/ha,0
same,Plant response rating Common ragweed,common ragweed; Rate 280 g/ha,0
same,Plant response rating Common ragweed,common ragweed; Rate 560 g/ha,0
same,Plant response rating Common ragweed,common ragweed; Rate 1120 g/ha,0
same,"Plant response rating, Purple nutsedge",purple nutsedge; Rate 140 g/ha,0
same,"Plant response rating, Purple nutsedge",purple nutsedge; Rate 280 g/ha,0
same,"Plant response rating, Purple nutsedge",purple nutsedge; Rate 560 g/ha,0
same,"Plant response rating, Purple nutsedge",purple nutsedge; Rate 1120 g/ha,0
same,Plant response rating Field bindweed,field bindweed; Rate 140 g/ha,0
same,Plant response rating Field bindweed,field bindweed; Rate 280 g/ha,0
same,Plant response rating Field bindweed,field bindweed; Rate 560 g/ha,40
same,Plant response rating Field bindweed,field bindweed; Rate 1120 g/ha,70
same,Plant response rating Wild poinsettia,wild poinsettia; Rate 140 g/ha,0
same,Plant response rating Wild poinsettia,wild poinsettia; Rate 280 g/ha,0
same,Plant response rating Wild poinsettia,wild poinsettia; Rate 560 g/ha,0
same,Plant response rating Wild poinsettia,wild poinsettia; Rate 1120 g/ha,0
CCc1ccccc1-n1c(=O)on(C(=O)N(c2ccc(F)cc2)C(C)C)c1=O [Compound 34],"Plant response rating, Sourgrass","sourgrass; Rate 32 g/ha, 0 no injury, 100 complete control",98
same,Sourgrass plant response rating,sourgrass; [1],100
same,Sourgrass plant response rating,"sourgrass; Rate 125 g/ha, 0 no injury, 100 complete control",100
same,"Plant response rating, Sourgrass",sourgrass; Rate 250 g/ha,100
CCN(C(=O)n1oc(=O)n(N(C)c2ccccc2)c1=O)C1CCCCC1 [Compound 183],"Plant response rating, Crabgrass","crabgrass; Postemergence, Rate 1000 g/ha",1
same,"Plant response rating, Crabgrass","crabgrass; Pre-emergence, Rate 2000 g/ha",5
Cc1ccccc1-n1c(=O)on(C(=O)N(c2ccccc2)C(C)C)c1=O [Compound 36],"Plant response rating, Green foxtail",Green foxtail,100
